The subject of one data set is Respective cell lines. Put plainly: Cytotoxicity assay (MTT). The settings on record: 48 hours. It is filed as cell-based. Here is the method:
In testing the compounds in cell lines, if cells are killed due to a toxicity of the compounds at the treatment concentration, a significant result cannot be obtained. Therefore, the toxicity assay was conducted by treatment with the compounds as follows. Respective cell lines were maintained on 96-well cell culture plate in the medium comprising 10% FBS with 1% Penicillin G/streptomycin, and then incubated under 37° C., 5% CO2 condition. All the experiments were repeated three times. The samples were properly diluted, and then cells were treated with the diluted samples at the concentrations of 1, 3, 10, 30, 100 μg/ml. After 48 hours, 10% (v/v) 5 mg/mL 3-(4,5-dimethylthiazol-2-yl)-2,5-diphenyltetrazolium bromide (MTT; Sigma) was added to the cell culture. After 3 hours of the incubation, the medium was aspirated and washed with PBS. After adding DMSO (100 μl), the mixture was gently agitated for 5 minutes. The absorbance was measured at 570 nm by means of VERSA max microplate reader (Molecular Devices Inc.), and the average absorbance (±SE) values as obtained from three experiments were compared with t-test, a statistical significance of P<0.05. When Compounds 1 and 3 were used at the concentrations of 1, 3, 10, 30, 100 μg/ml, the survival rates of cells were 94, 76, 70, 67, 30%, respectively, by the treatment with Compound 1, and 74, 71, 65, 57, 19%, respectively, by the treatment with Compound 3. It means that at least 50% of cells survive at the concentration (for example, 30 μg/ml) of the compounds of the present invention for measuring IL-6 inhibitory activity.

Data set [1] relates to IL-6 reactive STAT3 reporter gene. Put plainly: IL-6 reactive STAT3 reporter gene test (pSTAT3-TA-Luc6 luciferase) in HepG2 cells. The data set is classed as cell-based. The settings on record: Homo sapiens. The method, then: A pSTAT3-TA-Luc6 construct, which comprises 8 more STAT3 DNA binding sequence copies as compared to pSTAT-3-TA-Luc and thus, enables to better reflect STAT3 reporter gene assay, was prepared. STAT3 DNA binding sequence was amplified using pSTAT3-TA-Luc plasmid (Clontech, Palo Alto, Calif.) as the template, and oligonucleotide ([…]. SEQ ID NO: 1 (containing Kpn I site)) and oligonucleotide ([…] GAAGCAACGTTC (containing Xho I site)) as forward primer and reverse primer, respectively, by means of a thermocycler. The amplified PCR product was cloned, separated, and then inserted into Kpn I/Xho I site of pSTAT3-TA-Luc plasmid.
Human hepatoma cell line, HepG2 cell, was incubated in MEM (Minimal Essential Medium, WelGENE Inc, Daegu, Korea) medium under water-saturated condition at 37° C., 5% CO2. To this medium was added 10% (v/v) fetal bovine serum, streptomycin (100 U/mL) and penicillin (100 U/mL). 6-Well cell culture plate was allowed to grow cells up to 80%, and then the specimen was pre-treated for one hour. Then, the medium was changed into 50 μL of serum-free medium, and the mixed solution of 0.1 μL pSTAT3-TA-Luc6 construct and 0.3 μL lipofectamin reagent was added to each well and then allowed to react for 3 hours to transfect cells with pSTAT3-TA-Luc6 construct. The medium was changed to a fresh medium, and the plate was incubated for 24 hours to transiently transfect cells. The transfected cells were serum-starved with 1% BSA/DMEM, and treated with the samples for one hour and then, after adding IL-6, incubated for 3 hours. The mixture was washed with PBS, shaken for one minute with addition of 50 μL of lysis buffer (promega luciferase assay system). After adding 30-100 μL of luciferase substrate (Promega luciferase assay system), the mixture was measured by a luminometer within 5 minutes.
Among others Compounds 1 and 3 as the materials having high inhibitory effect on IL-6 activity were used at various concentration to measure the degree of inhibitory effect, and the results thereof are as shown in FIGS. 2 and 3.

The test system of data set [2] is IL-6 induced ERK phosphorylation. Put plainly: Test for inhibitory activity against ERK phosphorylation induced by IL-6 (Western blot, HepG2). It is filed as cell-based, human. The conditions noted are these: HepG2, 30 μg/ml (FIG. 5). Here is the method: HepG2 cell was divisionally inoculated in 6-well plate, and then starved for 18 hours.
The starved cells were treated with the samples for one hour, and then stimulated with IL-6 or LIF (Upstate Biotechnology, USA) for 10 minutes. The specimen was treated with 5× cell lysis buffer (Promega) sometimes with vortexing under ice for 30 minutes. The cell lysate obtained as described under B in Experiment 1 (3) was dissolved in 8% SDS-PAGE gel, and transferred to the nitrocellulose membrane. This membrane was blocked with Tris-buffered solution (50 mM Tris-HCl (pH 7.4), 150 mM NaCl, 0.1% Tween 20) containing 5% non-fat dry milk at 4° C. Then, it was incubated together with an appropriate primary antibody (ERK) present in Tris-buffered solution (50 mM Tris-HCl (pH 7.4), 150 mM NaCl, 0.1% Tween 20) containing 5% non-fat dry milk, at room temperature for 1-2 hours. This membrane was washed five times with TBS buffer solution for 10 minutes, and incubated with 1:6000 diluted horseradish peroxidase-conjugated secondary antibodies for one hour. The membrane was washed 10 times with TBS buffer solution, and then mixed and incubated with the 1:1 mixture of HRP Substrate Luminol Reagent and HRP Substrate Peroxide Solution as ELC reagent (Millipore Corp. Ma USA). The chemiluminescent signals were visualized with X-ray film.

For `CCc1ccc(Nc2nc3cc(NC(=O)c4ccccc4)ccc3o2)cc1` [Compound 3, N-(2-(4-ethylphenylamino)benzo[d]oxazol-5-yl)benzamide], the “Survival rate of cells” value with Respective cell lines (1 μg/ml) was determined as 74%; in the data set with Respective cell lines (3 μg/ml) it was 71%; in the data set with Respective cell lines (10 μg/ml), 65%; in the data set on Respective cell lines (30 μg/ml), 57%; in the data set with Respective cell lines (100 μg/ml) it was 19%. In data set [1] (HepG2, read-out: IC50 of IL-6 inhibitory activity (STAT3 reporter gene)), the IC50 (in general, the concentration at which inhibition is half-maximal) stood at 5.8 µM. Besides, the inhibition at 20 µg/mL in data set [1] (HepG2, read-out: Inhibition % of IL-6 reactive STAT3 reporter gene activity, 20 ug/ml of sample, HepG2 cells) was more than 80%. The “Influence on IL-6 induced ERK phosphorylation” value in data set [2] is “did not influence on ERK phosphorylation”.
